# Calls of active or inactive are those of the source. The calls are words filed in the database; no cut-off is given here.
# Experiments:
# Huh-7 [1] = experiment: Induction of apoptosis in human Huh-7 cells assessed as necrotic cells at 10 nM incubated for 48 hrs by Annexin V-FITC/PI staining based flow cytometry method (reference value: 1.9%); format: functional
# Hep 3B2 [2] = experiment: Induction of apoptosis in human Hep3B cells assessed as early apoptotic cells at 10 nM measured after 48 hrs in presence of gamabufotalin by Annexin V-FITC/PI staining based flow cytometry method (reference value: 1.3%); format: functional
# Huh-7 [3] = experiment: Induction of autophagy in human Huh-7 cells harbouring mCherry-egfp-LC3 assessed as reduction in red puncta ratio at 10 nM incubated for 15 mins in presence of gamabufotalin by laser scanning confocal microscopic analysis; format: functional, cell-based
# Huh-7 [4] = experiment: Induction of apoptosis in human Huh-7 cells assessed as necrotic cells at 10 nM incubated for 48 hrs in presence of gamabufotalin by Annexin V-FITC/PI staining based flow cytometry method (reference value: 1.9%); format: functional
# Hep 3B2 [5] = experiment: Induction of apoptosis in human Hep3B cells assessed as upregulation of PARP level at 10 uM incubated for 48 hrs in presence of gamabufotalin by immunoblot analysis; format: functional, cell-based
# Huh-7 [6] = experiment: Induction of apoptosis in human Huh-7 cells assessed as reduction in bcl-2 level at 10 uM incubated for 48 hrs in presence of gamabufotalin by immunoblot analysis; format: functional, cell-based
# Hep 3B2 [7] = experiment: Induction of apoptosis in human Hep3B cells assessed as upregulation of cleaved caspase-3 level at 10 uM incubated for 48 hrs in presence of gamabufotalin by immunoblot analysis; format: functional, cell-based
# Huh-7 [8] = experiment: Induction of apoptosis in human Huh-7 cells assessed as upregulation of caspase-3 level at 10 uM incubated for 48 hrs in presence of gamabufotalin by immunoblot analysis; format: functional, cell-based
# Hep 3B2 [9] = experiment: Induction of apoptosis in human Hep3B cells assessed as upregulation of caspase-3 level at 10 uM incubated for 48 hrs in presence of gamabufotalin by immunoblot analysis; format: functional, cell-based
# Huh-7 [10] = experiment: Induction of apoptosis in human Huh-7 cells assessed as viable cells at 10 nM incubated for 48 hrs in presence of gamabufotalin by Annexin V-FITC/PI staining based flow cytometry method (reference value: 90.0%); format: functional; settings: read-out: Activity
# Hep 3B2 [11] = experiment: Induction of apoptosis in human Hep3B cells assessed as late apoptotic cells at 10 nM incubated for 48 hrs in presence of gamabufotalin by Annexin V-FITC/PI staining based flow cytometry method (reference value: 2.2%); format: functional
# Huh-7 [12] = experiment: Induction of apoptosis in human Huh-7 cells assessed as early apoptotic cells at 10 nM incubated for 48 hrs in presence of gamabufotalin by Annexin V-FITC/PI staining based flow cytometry method (reference value: 4.3%); format: functional
# Huh-7 [13] = experiment: Induction of apoptosis in human Huh-7 cells assessed as late apoptotic cells at 10 nM incubated for 48 hrs in presence of gamabufotalin by Annexin V-FITC/PI staining based flow cytometry method (reference value: 3.8%); format: functional
# Huh-7 [14] = experiment: Induction of autophagy in human Huh-7 cells assessed as restoration of ULK1 phosphorylation expression at 10 uM incubated for 48 hrs in presence of gamabufotalin by immunoblot analysis; format: functional, cell-based
# Hep 3B2 [15] = experiment: Induction of autophagy in human Hep3B cells assessed as restoration of ULK1 phosphorylation expression at 10 uM incubated for 48 hrs in presence of gamabufotalin by immunoblot analysis; format: functional, cell-based
# Huh-7 [16] = experiment: Induction of autophagy in human Huh-7 cells assessed as upregulation of p62 at 10 uM incubated for 48 hrs in presence of gamabufotalin by immunoblot analysis; format: functional, cell-based
# Hep 3B2 [17] = experiment: Induction of autophagy in human Hep3B cells assessed as restoration of mTOR phosphorylation expression at 10 uM incubated for 48 hrs in presence of gamabufotalin by immunoblot analysis; format: functional, cell-based
# Huh-7 [18] = experiment: Induction of autophagy in human Huh-7 cells assessed as restoration of mTOR phosphorylation expression at 10 uM incubated for 48 hrs in presence of gamabufotalin by immunoblot analysis; format: functional, cell-based
# Huh-7 [19] = experiment: Induction of autophagy in human Huh-7 cells assessed as reduction in autophagic vesicles at 10 nM incubated for 48 hrs in presence of gamabufotalin by transmission electron microscopy based analysis; format: functional, cell-based
# Hep 3B2 [20] = experiment: Induction of apoptosis in human Hep3B cells assessed as upregulation of cleaved PARP level at 10 uM incubated for 48 hrs in presence of gamabufotalin by immunoblot analysis; format: functional, cell-based
# Huh-7 [21] = experiment: Induction of apoptosis in human Huh-7 cells assessed as upregulation of cleaved caspase-3 level at 10 uM incubated for 48 hrs in presence of gamabufotalin by immunoblot analysis; format: functional, cell-based
# Hep 3B2 [22] = experiment: Induction of apoptosis in human Hep3B cells assessed as viable cells at 10 nM incubated for 48 hrs by Annexin V-FITC/PI staining based flow cytometry method (Rvb =95.7%); format: functional; settings: read-out: Activity
# Huh-7 [23] = experiment: Induction of autophagy in human Huh-7 cells harbouring mCherry-egfp-LC3 assessed as reduction in yellow puncta ratio at 10 nM incubated for 15 mins in presence of gamabufotalin by laser scanning confocal microscopic analysis; format: functional, cell-based
# Hep 3B2 [24] = experiment: Induction of autophagy in human Hep3B cells assessed as downregulation of LC3II/LC3I ratio at 10 uM incubated for 48 hrs in presence of gamabufotalin by immunoblot analysis; format: functional, cell-based
# Hep 3B2 [25] = experiment: Induction of apoptosis in human Hep3B cells assessed as early apoptotic cells at 10 nM measured after 48 hrs by Annexin V-FITC/PI staining based flow cytometry method (reference value: 1.3%); format: functional
# Hep 3B2 [26] = experiment: Induction of autophagy in human Hep3B cells harbouring mCherry-egfp-LC3 assessed as reduction in red puncta ratio at 10 nM incubated for 15 mins in presence of gamabufotalin by laser scanning confocal microscopic analysis; format: functional, cell-based
# Huh-7 [27] = experiment: Induction of apoptosis in human Huh-7 cells assessed as viable cells at 10 nM incubated for 48 hrs by Annexin V-FITC/PI staining based flow cytometry method (reference value: 90.0%); format: functional; settings: read-out: Activity
# Hep 3B2 [28] = experiment: Induction of apoptosis in human Hep3B cells assessed as viable cells at 10 nM incubated for 48 hrs in presence of gamabufotalin by Annexin V-FITC/PI staining based flow cytometry method (Rvb =95.7%); format: functional; settings: read-out: Activity
# Hep 3B2 [29] = experiment: Induction of autophagy in human Hep3B cells assessed as reduction in autophagic vesicles at 10 nM incubated for 48 hrs in presence of gamabufotalin by transmission electron microscopy based analysis; format: functional, cell-based
# Hep 3B2 [30] = experiment: Induction of apoptosis in human Hep3B cells assessed as upregulation of bax level at 10 uM incubated for 48 hrs in presence of gamabufotalin by immunoblot analysis; format: functional, cell-based
# Huh-7 [31] = experiment: Induction of apoptosis in human Huh-7 cells assessed as upregulation of cleaved PARP level at 10 uM incubated for 48 hrs in presence of gamabufotalin by immunoblot analysis; format: functional, cell-based
# Huh-7 [32] = experiment: Induction of apoptosis in human Huh-7 cells assessed as late apoptotic cells at 10 nM incubated for 48 hrs by Annexin V-FITC/PI staining based flow cytometry method (reference value: 3.8%); format: functional
# Huh-7 [33] = experiment: Induction of autophagy in human Huh-7 cells assessed as downregulation of LC3II/LC3I ratio at 10 uM incubated for 48 hrs in presence of gamabufotalin by immunoblot analysis; format: functional, cell-based
# Hep 3B2 [34] = experiment: Induction of autophagy in human Hep3B cells harbouring mCherry-egfp-LC3 assessed as reduction in yellow puncta ratio at 10 nM incubated for 15 mins in presence of gamabufotalin by laser scanning confocal microscopic analysis; format: functional, cell-based
# Huh-7 [35] = experiment: Induction of apoptosis in human Huh-7 cells assessed as upregulation of PARP level at 10 uM incubated for 48 hrs in presence of gamabufotalin by immunoblot analysis; format: functional, cell-based
# Hep 3B2 [36] = experiment: Induction of apoptosis in human Hep3B cells assessed as reduction in bcl-2 level at 10 uM incubated for 48 hrs in presence of gamabufotalin by immunoblot analysis; format: functional, cell-based
# Hep 3B2 [37] = experiment: Induction of apoptosis in human Hep3B cells assessed as late apoptotic cells at 10 nM incubated for 48 hrs by Annexin V-FITC/PI staining based flow cytometry method (reference value: 2.2%); format: functional
# Hep 3B2 [38] = experiment: Induction of apoptosis in human Hep3B cells assessed as necrotic cells at 10 nM incubated for 48 hrs by Annexin V-FITC/PI staining based flow cytometry method (reference value: 0.7%); format: functional
# Huh-7 [39] = experiment: Induction of apoptosis in human Huh-7 cells assessed as early apoptotic cells at 10 nM incubated for 48 hrs by Annexin V-FITC/PI staining based flow cytometry method (reference value: 4.3%); format: functional
# Huh-7 [40] = experiment: Induction of apoptosis in human Huh-7 cells assessed as upregulation of bax level at 10 uM incubated for 48 hrs in presence of gamabufotalin by immunoblot analysis; format: functional, cell-based
# Hep 3B2 [41] = experiment: Induction of autophagy in human Hep3B cells assessed as upregulation of p62 at 10 uM incubated for 48 hrs in presence of gamabufotalin by immunoblot analysis; format: functional, cell-based
# Hep 3B2 [42] = experiment: Induction of apoptosis in human Hep3B cells assessed as necrotic cells at 10 nM incubated for 48 hrs in presence of gamabufotalin by Annexin V-FITC/PI staining based flow cytometry method (reference value: 0.7%); format: functional
smiles,measurement,setting,value
O=[N+]([O-])c1ccc(Nc2nc(N3CCOCC3)nc(N3CCOCC3)n2)cc1,Activity,Huh-7 [1],0.7%
same,Activity,Hep 3B2 [2],10.9%
same,Activity,Huh-7 [3],Active
same,Activity,Huh-7 [4],1.7%
same,Activity,Hep 3B2 [5],Active
same,Activity,Huh-7 [6],Active
same,Activity,Hep 3B2 [7],Active
same,Activity,Huh-7 [8],Active
same,Activity,Hep 3B2 [9],Active
same,viability at 0.01 µM,Huh-7 [10],76.8%
same,Activity,Hep 3B2 [11],20.2%
same,Activity,Huh-7 [12],14.9%
same,Activity,Huh-7 [13],6.6%
same,Activity,Huh-7 [14],Active
same,Activity,Hep 3B2 [15],Active
same,Activity,Huh-7 [16],Active
same,Activity,Hep 3B2 [17],Active
same,Activity,Huh-7 [18],Active
same,Activity,Huh-7 [19],Active
same,Activity,Hep 3B2 [20],Active
same,Activity,Huh-7 [21],Active
same,viability at 0.01 µM,Hep 3B2 [22],94%
same,Activity,Huh-7 [23],Active
same,Activity,Hep 3B2 [24],Active
same,Activity,Hep 3B2 [25],2.5%
same,Activity,Hep 3B2 [26],Active
same,viability at 0.01 µM,Huh-7 [27],92.6%
same,viability at 0.01 µM,Hep 3B2 [28],67.2%
same,Activity,Hep 3B2 [29],Active
same,Activity,Hep 3B2 [30],Active
same,Activity,Huh-7 [31],Active
same,Activity,Huh-7 [32],2.9%
same,Activity,Huh-7 [33],Active
same,Activity,Hep 3B2 [34],Active
same,Activity,Huh-7 [35],Active
same,Activity,Hep 3B2 [36],Active
same,Activity,Hep 3B2 [37],3.4%
same,Activity,Hep 3B2 [38],0.1%
same,Activity,Huh-7 [39],3.8%
same,Activity,Huh-7 [40],Active
same,Activity,Hep 3B2 [41],Active
same,Activity,Hep 3B2 [42],1.7%
